# Test results: US20240060138A1, “BREAST CANCER-RESPONSE PREDICTION SUBTYPES” (The Regents of The University of California, priority 2022, published 2024)
# System: high-risk stage II and III early breast cancer
# Test: I-SPY2 neoadjuvant platform trial: pCR rate by arm within receptor or response-predictive subtype
# Assay type: in vivo, women
# Description: I-SPY2 is an ongoing, open-label, adaptive, randomized phase II, multicenter trial of neoadjuvant therapy for early-stage breast cancer (NCT01042379; IND 105139). It is a platform trial evaluating multiple investigational arms in parallel against a common standard of care control arm. The primary endpoint is pCR (ypT0/is, ypN0), defined as the absence of invasive cancer in the breast and regional nodes at the time of surgery. As I-SPY2 is modified intent-to-treat, patients receiving any dose of study therapy are considered evaluable; those who switch to non-protocol therapy, progress, forgo surgery, or withdraw are deemed ‘non-pCR’. Secondary endpoints include residual cancer burden (RCB) and event-free and distant relapse-free survival (EFS and DRFS) (Symmans et al., 2007)
# Assessments at screening establish eligibility and classify participants into subtypes defined by hormone receptor (HR) status, HER2, and 70-gene signature (MammaPrint®) status (Cardoso et al., 2016; Piccart et al., 2021). Adaptive randomization in I-SPY2 preferentially assigns patients to trial arms according to continuously updated Bayesian probabilities of pCR rates within each biomarker signature; 20% of patients are randomly assigned to the control arm (Berry, 2011). […] An arm can be dropped for futility if the predicted probability of success in a future 300-patient, 1:1 randomized, phase 3 trial drops below 10%, or graduate for efficacy if the probability of success reaches 85% or greater in any biomarker signature. The clinical control arm for the efficacy analysis uses patients randomized throughout the entire trial. […] During the design of each new experimental arm the investigators together with the pharmaceutical sponsor decide in which of the 10 a priori defined biomarker signatures the drug will be tested. Upon entry to the trial, participants are dichotomized into hormone receptor (HR) negative versus positive, HER2 positive versus negative, and MammaPrint High1 [MP1] versus High2 [MP2] status.
# This correlative study involved 987 women with high-risk stage II and III early breast cancer who were enrolled in 10 arms of I-SPY2: the first 9 experimental arms that completed evaluation and the control arm as shown in the schema of FIG. 1A. […] For HER2+ patients, N was administered instead of H, whereas M and trebananib were administered in addition to H. Dose reductions and toxicity management were specified in the protocol. Adverse events were collected according to the NCI Common Terminology Criteria for Adverse Events (CTCAE) version 4.0. After completion of AC, patients underwent lumpectomy or mastectomy and nodal sampling, with choice of surgery at the discretion of the treating surgeon. Detailed descriptions of the design, eligibility, and efficacy of these 9 experimental arms of the I-SPY2 trial have been reported previously (Chien et al., 2019; Clark et al., 2021; Nanda et al., 2020; Park et al., 2016; Pusztai et al., 2021; Rugo et al., 2016).
# A major goal of a response-predictive schema is to increase the pCR rate in the population and to maximize the probability of pCR for an individual patient (R2).
compound,measurement,setting,value
"NC1(c2ccc(-c3nc4ccn5c(=O)[nH]nc5c4cc3-c3ccccc3)cc2)CCC1 [MK2206, 8-[4-(1-aminocyclobutyl)phenyl]-9-phenyl-2H-[1,2,4]triazolo[3,4-f][1,6]naphthyridin-3-one]",pCR rate,HER2+/BP-HER2 or BP-Basal patients (RPS-5),48%
same,pCR rate,HER2+/BP-Luminal class (RPS-5),60%
same,pCR rate,HER2-/Immune-/DRD- (RPS-5),20%
same,pCR rate,RPS-7 S2: HER2+/BP Luminal,60%
same,pCR rate,RPS-7 S6: HER2=0/Immune-/DRD-,20%
same,pCR rate,RPS-7 S7: HR+HER2low/Immune-DRD-,20%
"CCOc1cc2ncc(C#N)c(Nc3ccc(OCc4ccccn4)c(Cl)c3)c2cc1NC(=O)/C=C/CN(C)C [N, neratinib]",pCR rate,RPS-7 S6: HER2=0/Immune-/DRD-,20%
ganitumab,pCR rate,RPS-7 S4: HR-/HER2low/Immune-/DRD-,40%
pembrolizumab,pCR rate,HER2-/Immune+ (RPS-5),79%
same,pCR rate,HR+HER2- receptor subtype,30%
same,pCR rate,RPS-7 S3: HER2=0.or.low/Immune+,79%
same,pCR rate,TN receptor subtype,66%
same,pCR rate,"TN, Immune+ patients",89%
same,pCR rate,"TN, Immune+/DRD+ class",92%
same,pCR rate,"TN, Immune+/DRD- class",80%
same,pCR rate,"TN, Immune-/DRD+ class",33%
pertuzumab,pCR rate,HER2+/BP-Luminal class (RPS-5),8%
veliparib/carboplatin [VC],pCR rate,HER2-/Immune-/DRD+ (RPS-5),60%
same,pCR rate,RPS-7 S5: HER2=0.or.low/Immune-/DRD+,60%
same,pCR rate,"TN, DRD+ patients",75%
same,pCR rate,"TN, Immune+/DRD+ class",74%
same,pCR rate,"TN, Immune-/DRD+ class",80%
